Reference: US8242109B2, “Compositions and methods relating to novel compounds and targets thereof” (priority 2007, dated 2012)
Read-outs that look alike come from different tables or passages of the source.

How the values were obtained:
F1F0-ATPase = molecular target: T1, F1F0-ATPase (Bos taurus, UniProt P13621); assay: Inhibition of ATP synthesis and hydrolysis by the F1F0-ATPase; type: biochemical
T1 construct: from tissue; host or cells: bovine sub-mitochondrial particles (SMPs)
Method: (§1) The compounds listed in Table 4 were tested for activity against F1F0-ATPase and cytotoxicity in Ramos cells. Inhibition of ATP synthesis and hydrolysis by the F1F0-ATPase was measured as described in K. M. Johnson et al., Chemistry & Biology 2005, 12, 485-496. Cytotoxicity in Ramos cells was measured as described in K. M. Johnson et al., Chemistry & Biology 2005, 12, 485-496, or using the alamarBlue™ Assay with fluorescence detection (U.S. Pat. No. 5,501,959) as supplied and described by Invitrogen (Carlsbad, Calif.).

Ramos cells = assay: Cytotoxicity in Ramos cells; type: cell-based; conditions: Homo sapiens, read-out: Ramos Cell EC50
Method: as §1

SMILES | IC50 (F1F0-ATPase) | EC50 (Ramos cells; cytotoxicity in Ramos cells) | EC50 (Ramos cells; Ramos)
CCc1ccccc1CC1N=C(c2ccc(O)cc2)c2cc(Cl)ccc2NC1=O (stereo not drawn) [Compound 23, (Z)-7-chloro-3-(2-ethylbenzyl)-5-(4-hydroxyphenyl)-1H-benzo[e][1,4]diazepin-2(3H)-one] | 5 to 10 µM | 5 to 10 µM | 
CCc1ccccc1CC1N=C(c2ccc(O)cc2)c2cc(Cl)ccc2N(C)C1=O (stereo not drawn) [Compound 24, (Z)-7-chloro-3-(2-ethylbenzyl)-5-(4-hydroxyphenyl)-1-methyl-1H-benzo[e][1,4]diazepin-2(3H)-one] | 5 to 10 µM | > 10 µM | 
CCc1cccc(CC2N=C(c3ccc(O)cc3)c3cc(Cl)ccc3NC2=O)c1 (stereo not drawn) [Compound 25, (Z)-7-chloro-3-(3-ethylbenzyl)-5-(4-hydroxyphenyl)-1H-benzo[e][1,4]diazepin-2(3H)-one] | 5 to 10 µM | 5 to 10 µM | 
CCc1cccc(CC2N=C(c3ccc(O)cc3)c3cc(Cl)ccc3N(C)C2=O)c1 (stereo not drawn) [Compound 26, (Z)-7-chloro-3-(3-ethylbenzyl)-5-(4-hydroxyphenyl)-1-methyl-1H-benzo[e][1,4]diazepin-2(3H)-one] | 5 to 10 µM | 5 to 10 µM | 
CCc1ccc(CC2N=C(c3ccc(O)cc3)c3cc(Cl)ccc3N(C)C2=O)cc1 (stereo not drawn) [Compound 27, (Z)-7-chloro-3-(4-ethylbenzyl)-5-(4-hydroxyphenyl)-1-methyl-1H-benzo[e][1,4]diazepin-2(3H)-one] | 5 to 10 µM | 5 to 10 µM | 
CCc1ccc(CC2N=C(c3ccc(O)cc3)c3cc(Cl)ccc3NC2=O)cc1 (stereo not drawn) [Compound 28, (Z)-7-chloro-3-(4-ethylbenzyl)-5-(4-hydroxyphenyl)-1H-benzo[e][1,4]diazepin-2(3H)-one] | 5 to 10 µM | 5 to 10 µM | 
CC(C)c1cccc(CC2N=C(c3ccc(O)cc3)c3cc(Cl)ccc3N(C)C2=O)c1 (stereo not drawn) [Compound 29, (Z)-7-chloro-5-(4-hydroxyphenyl)-3-(3-isopropylbenzyl)-1-methyl-1H-benzo[e][1,4]diazepin-2(3H)-one] | 5 to 10 µM | 5 to 10 µM | 
CC(C)c1ccc(CC2N=C(c3ccc(O)cc3)c3cc(Cl)ccc3NC2=O)cc1 (stereo not drawn) [Compound 30, (Z)-7-chloro-5-(4-hydroxyphenyl)-3-(4-isopropylbenzyl)-1H-benzo[e][1,4]diazepin-2(3H)-one] | 5 to 10 µM | 5 to 10 µM | 
CC(C)c1ccc(CC2N=C(c3ccc(O)cc3)c3cc(Cl)ccc3N(C)C2=O)cc1 (stereo not drawn) [Compound 31, (Z)-7-chloro-5-(4-hydroxyphenyl)-3-(4-isopropylbenzyl)-1-methyl-1H-benzo[e][1,4]diazepin-2(3H)-one] | 5 to 10 µM | 5 to 10 µM | 
CN1C(=O)C(Cc2ccccc2C(F)(F)F)N=C(c2ccc(O)cc2)c2cc(Cl)ccc21 (stereo not drawn) [Compound 32, (Z)-7-chloro-5-(4-hydroxyphenyl)-1-methyl-3-(2-(trifluoromethyl)benzyl)-1H-benzo[e][1,4]diazepin-2(3H)-one] | 5 to 10 µM | 5 to 10 µM | 
O=C1Nc2ccc(Cl)cc2C(c2ccc(O)cc2)=NC1Cc1ccccc1Br (stereo not drawn) [Compound 33, (Z)-3-(2-bromobenzyl)-7-chloro-5-(4-hydroxyphenyl)-1H-benzo[e][1,4]diazepin-2(3H)-one] | 5 to 10 µM |  | < 5 µM
CN1C(=O)C(Cc2ccccc2Cl)N=C(c2ccc(O)cc2)c2cc(Cl)ccc21 (stereo not drawn) [Compound 34, (Z)-7-chloro-3-(2-chlorobenzyl)-5-(4-hydroxyphenyl)-1-methyl-1H-benzo[e][1,4]diazepin-2(3H)-one] | < 5 µM | 5 to 10 µM | 
CN1C(=O)C(Cc2ccc(C(F)(F)F)cc2)N=C(c2ccc(O)cc2)c2cc(Cl)ccc21 (stereo not drawn) [Compound 36, (Z)-7-chloro-5-(4-hydroxyphenyl)-1-methyl-3-(4-(trifluoromethyl)benzyl)-1H-benzo[e][1,4]diazepin-2(3H)-one] | < 5 µM | 5 to 10 µM | 
CN1C(=O)C(Cc2cccc(Br)c2)N=C(c2ccc(O)cc2)c2cc(Cl)ccc21 (stereo not drawn) [Compound 37, (Z)-3-(3-bromobenzyl)-7-chloro-5-(4-hydroxyphenyl)-1-methyl-1H-benzo[e][1,4]diazepin-2(3H)-one] | < 5 µM | 5 to 10 µM | 
CN1C(=O)C(Cc2ccc(Br)cc2)N=C(c2ccc(O)cc2)c2cc(Cl)ccc21 (stereo not drawn) [Compound 38, (Z)-3-(4-bromobenzyl)-7-chloro-5-(4-hydroxyphenyl)-1-methyl-1H-benzo[e][1,4]diazepin-2(3H)-one] | < 5 µM | 5 to 10 µM | 
CN1C(=O)C(Cc2cccc(Cl)c2)N=C(c2ccc(O)cc2)c2cc(Cl)ccc21 (stereo not drawn) [Compound 39, (Z)-7-chloro-3-(3-chlorobenzyl)-5-(4-hydroxyphenyl)-1-methyl-1H-benzo[e][1,4]diazepin-2(3H)-one] | > 10 µM | > 10 µM | 
O=C1Nc2ccc(Cl)cc2C(c2ccc(O)cc2)=NC1Cc1ccccc1Cl (stereo not drawn) [Compound 40, (Z)-7-chloro-3-(2-chlorobenzyl)-5-(4-hydroxyphenyl)-1H-benzo[e][1,4]diazepin-2(3H)-onc] | < 5 µM |  | 5 to 10 µM
O=C1Nc2ccc(Cl)cc2C(c2ccc3[nH]c(=O)[nH]c3c2)=NC1Cc1ccccc1Cl (stereo not drawn) [Compound 41, (Z)-7-chloro-3-(2-chlorobenzyl)-5-(2-oxo-2,3-dihydro-1H-benzo[d]imidazol-5-yl)-1H-benzo[e][1,4]diazepin-2(3H)-one] | < 5 µM | < 5 µM | 
